Measurements as given in ChEMBL document CHEMBL5241105, “Natural Products with Potential for Nonhormonal Male Contraception” (J Nat Prod, 2021).

Key:
Meriones unguiculatus = test: Antifertility activity in gerbils assessed as inhibition of spermatid production at 25 mg/kg, po (reference value: 51.2 %); assay type: functional; set-up: scale not given: the % may be the effect or the level left
Oryctolagus cuniculus = test: Antifertility activity in rabbit assessed as inhibition of spermatid production at 25 mg/kg, po (reference value: 33.9 %); assay type: functional; set-up: scale not given: the % may be the effect or the level left
Homo sapiens = species on record: Homo sapiens; test: Inhibition of calcium channel (unknown origin) at 2 mg/ml relative to control
Rattus norvegicus [1] = species on record: Rattus norvegicus; test: Antifertility in male rat assessed as reduction in fertility relative to control; assay type: functional; set-up: scale not given: the % may be the effect or the level left
Mus musculus [2] = species on record: Mus musculus; test: Antifertility activity in mouse assessed as reduction in testicular weight relative to control; assay type: functional; set-up: scale not given: the % may be the effect or the level left
Rattus norvegicus [3] = species on record: Rattus norvegicus; test: Antifertility activity in Sprague-Dawley rat assessed as reduction in cauda epididymal sperm count (reference value: 41.5 +/- 19.3 10^6/ml); assay type: functional
Rattus norvegicus [4] = species on record: Rattus norvegicus; test: Antifertility activity in Sprague-Dawley rat assessed as sperm with normal morphology (reference value: 77.2 +/- 16.9%); assay type: functional
Rattus norvegicus [5] = species on record: Rattus norvegicus; test: Antifertility activity in Sprague-Dawley rat assessed as motile sperm percentage (reference value: 85.7 +/- 16.9%); assay type: functional
[6] = Toxicity in oral dosed rat assessed as median lethal dose; assay type: organism-based; settings: in vivo
Hamster = test: Antifertility activity in hamster assessed as decrease in egg fertilization percentage at 0.70 to 1.05 mM (reference value: 93.6 +/- 3.12 %); assay type: functional, Cricetinae; set-up: scale not given: the % may be the effect or the level left; settings: dose 0.7-1.05 mM; at 0.7 to 1.05 mM
Rattus norvegicus [7] = test: Antifertility activity in male albino rat assessed as reduction in spermatids at 15 mg/kg administered daily relative to control; assay type: functional; set-up: scale not given: the % may be the effect or the level left
Rattus norvegicus [8] = test: Antifertility activity in male albino rat assessed as reduction in number of spermatids at 15 mg/kg administered daily relative to control; assay type: functional; set-up: scale not given: the % may be the effect or the level left
Rattus norvegicus [9] = test: Antifertility activity in male albino rat assessed as reduction in sertoli cells at 15 mg/kg administered daily relative to control; assay type: functional; set-up: scale not given: the % may be the effect or the level left
Rattus norvegicus [10] = test: Antifertility activity in rat assessed as decrease in fertility at 10 mg/kg administered daily relative to control; assay type: functional; set-up: scale not given: the % may be the effect or the level left
[11] = Toxicity in rat assessed as median lethal dose; settings: in vivo
Mus musculus [12] = test: Antifertility activity in C57BL/6J male mouse assessed as head bend back deformation at 0.8 mg/kg administered via oral gavage for 4 weeks relative to control; assay type: functional
[13] = Toxicity in mouse assessed as median lethal dose; settings: in vivo
Mus musculus [14] = test: Antifertility activity in C57BL/6J male mouse assessed as reduction in forward sperm motility at 0.8 mg/kg administered via oral gavage for 4 weeks relative to control; assay type: functional; set-up: scale not given: the % may be the effect or the level left
Mus musculus [15] = species on record: Mus musculus; test: Antifertility against male C57BL/6J mouse assessed as infertility; assay type: functional, organism-based
Rattus norvegicus [16] = species on record: Rattus norvegicus; test: Antifertility activity in albino rat assessed as inhibition of motility (reference value: 30.75 %); assay type: functional; set-up: scale not given: the % may be the effect or the level left
Rattus norvegicus [17] = test: Antifertility activity in male Sprague-Dawley rat assessed as infertility at 100 microg/kg/day measured for 63 to 70 days relative to control; assay type: functional; settings: dose 100 µg/kg/day; time 63-70 day

C[C@@H]1C[C@H](O)[C@]2(O)O[C@@H]3C[C@@]4(C=O)[C@@H](CC[C@@H]5[C@@H]4CC[C@]4(C)[C@@H](C6=CC(=O)OC6)CC[C@]54O)C[C@H]3O[C@@H]2O1 [CALOTROPIN]
Activity (Meriones unguiculatus): 65.2% | Activity (Oryctolagus cuniculus): 94%

Oc1cc(O)c2c(c1)O[C@H](c1ccc(O)c(O)c1)[C@H](O)C2
inhibition (Homo sapiens): 53%

CC1(C)C[C@H]2C3=CC[C@@H]4[C@@]5(C)CC[C@H](O[C@@H]6O[C@H](CO[C@@H]7OC[C@@H](O)[C@H](O)[C@H]7O[C@@H]7OC[C@@H](O)[C@H](O)[C@H]7O)[C@@H](O)[C@H](O)[C@H]6O)C(C)(C)[C@@H]5CC[C@@]4(C)[C@]3(C)C[C@@H](O)[C@@]23C[C@@H]1OC3=O
Activity (Rattus norvegicus [1]): 100%

CC1(C)C[C@H]2C3=CC[C@@H]4[C@@]5(C)CC[C@H](O[C@@H]6O[C@H](CO[C@@H]7OC[C@@H](O)[C@H](O)[C@H]7O[C@@H]7O[C@H](CO)[C@@H](O)[C@H](O)[C@H]7O)[C@@H](O)[C@H](O)[C@H]6O[C@@H]6O[C@H](CO)[C@@H](O)[C@H](O)[C@H]6O)C(C)(C)[C@@H]5CC[C@@]4(C)[C@]3(C)C[C@@H](O)[C@@]23C[C@@H]1OC3=O
Activity (Rattus norvegicus [1]): 100%

CC1(C)CC[C@]2(C(=O)O)CC[C@]3(C)C(=CC[C@@H]4[C@@]5(C)CC[C@H](O)C(C)(C)[C@@H]5CC[C@]43C)[C@@H]2C1 [OLEANOLIC_ACID]
Activity (Mus musculus [2]): 60%

C=C1CC/C=C(/C)CC[C@@H]2[C@@H]1CC2(C)C [CARYOPHYLLENE]
Activity (Rattus norvegicus [3]): 20.8 10^6/ml | Activity (Rattus norvegicus [4]): 36.2% | Activity (Rattus norvegicus [5]): 57.4% | LD50 [6]: > 5000 mg/kg

CC1(C)C[C@H]2C3=CC[C@@H]4[C@@]5(C)CC[C@H](O[C@@H]6O[C@H](CO[C@@H]7OC[C@@H](O)[C@H](O)[C@H]7O[C@@H]7O[C@H](CO)[C@@H](O)[C@H](O)[C@H]7O)[C@@H](O)[C@H](O)[C@H]6O)C(C)(C)[C@@H]5CC[C@@]4(C)[C@]3(C)C[C@@H](O)[C@@]23C[C@@H]1OC3=O
Activity (Rattus norvegicus [1]): 100%

O=C(/C=C/C=C/c1ccc2c(c1)OCO2)N1CCCCC1 [PIPERINE]
Activity (Hamster): 3.89%

COC(=O)C1=CO[C@@H](O[C@@H]2O[C@H](CO)[C@@H](O)[C@H](O)[C@H]2O)[C@H]2[C@@H]1C=C[C@@]21C=C([C@H](C)O)C(=O)O1 [PLUMIERIDE]
Activity (Rattus norvegicus [7]): 59% | Activity (Rattus norvegicus [8]): 87% | Activity (Rattus norvegicus [9]): 29%

C=C(C)[C@@H]1CC[C@]2(C)CC[C@]3(C)[C@H](CC[C@@H]4[C@@]5(C)CC[C@H](O)C(C)(C)[C@@H]5CC[C@]43C)[C@@H]12 [LUPEOL]
Activity (Rattus norvegicus [10]): 100%

CC(C)[C@]12O[C@H]1[C@@H]1O[C@@]13[C@@]1(C)CCC4=C(COC4=O)[C@@H]1C[C@@H]1O[C@@]13C2=O [TRIPTONIDE]
LD50 [11]: 980 mg/kg | Activity (Mus musculus [12]): 100% | LD50 [13]: 300 mg/kg | Activity (Mus musculus [14]): 100% | EC50 (Mus musculus [15]): 0.9 mg/kg

CCCCCCCCCCCC1=C(O)C(=O)C=C(O)C1=O [EMBELIN]
Activity (Rattus norvegicus [16]): 9.5%

CC(C)[C@]12O[C@H]1[C@@H]1O[C@]13[C@]1(O[C@H]1C[C@H]1C4=C(CC[C@@]13C)C(=O)OC4)[C@@H]2O [TRIPTOLIDE]
Activity (Rattus norvegicus [17]): 100%
